Reference: patent publication US4716153A, “Stable oral preparation of macrolide antibiotics and method for stabilizing the same” (priority 1982, dated 1987)
Like-named read-outs stand apart in the source and are kept apart here.

Tests used:
[1] = Stability in Japan Pharmacopoeia 1st solution (pH 1.2) at 37° C., with or without stabilizer (TLC densitometry, 232 nm); type: physicochemical
From the text: The stabilizers showing pH 3-10 used in the invention may be substances having a buffering or antacid action and showing pH 3-10, preferably 5.5-6.5. These are, for example, neutral amino acids or their basic salts, basic salts of acidic amino acids, basic amino acids,basic salts of organic carboxylic acids,basic salts of polybasic organic carboxylic acids, basic salts of uronic acid or inorganic salt antacids. The neutral amino acids or basic salts thereof include glycine, alanine, aminobutyric acid, proline, leucine, isoleucine, methionine, threonine, serine, valine, or their aluminium salts, for example aluminium glycinate. Among these, glycine, alanine and aluminium glycinate, both of which show pH 5.5-6.5, are preferable. The basic salts of acidic amino acid include monobasic salts such as a monosodium, monopotassium or magnesium salt of glutaminic or aspartic acid. Among these monobasic salts, monosodium glutamate or monosodium aspartate is preferable. The basic amino acids include arginine, glutamine, asparagine, citrulin, tryptophane and histidine. Especially, histidine is preferable. The basic salts of monobasic organic carboxylic acid include basic salts such as sodium, potassium, magnesium or aluminium salts of saturated monobasic organic carboxylic acids such as acetic acid and propionic acid, of unsaturated monobasic organic acids such as acrylic acid, crotonic acid and vinylacetic acid, and of other monobasic organic acids such as lactic acid, pyruvic acid, glyceric acid and acetoacetic acid. The basic salts of polybasic organic carboxylic acid include mono-, di- or tri-sodium, potassium, magnesium, calcium or aluminium salts of saturated polybasic organic carboxylic acids such as oxalic acid, malonic acid, succinic acid, glutaric acid, adipic acid and pimelic acid, of unsaturated polybasic organic carboxylic acids such as maleic acid and fumaric acid, and of other polybasic organic carboxylic acids such as meso-oxalic acid, malic acid, oxalacetic acid and citric acid. Among these, trisodium citrate is preferable. The basic salts of uric acids include sodium salts of glucuronic acid, galacturonic acid or their polymers such as alginic acid or peptic acid and dihydroxyaluminium aminoacetate sodium alginate. The inorganic salt antacids include calcium hydrogenphosphate, disodium hydrogenphosphate, dipotassium hydrogenphosphate, magnesium hydrogenphosphate, calcium carbonate, sodium carbonate, potassium carbonate, sodium hydrogen carbonate, aluminium carbonate, magnesium carbonate, potassium metasilicate, magnesium aluminate metasilicate, sodium metasilicate, synthetic aluminium silicate, magnesium silicate, aluminium silicate, magnesium aluminate silicate, magnesium-bismuth aluminate silicate, magnesium oxide, alumina-magnesium hydroxide, magnesium peroxide, magnesium hydroxide, aluminium hydroxide, synthetic hydrotarphite, aluminium phosphate and others. Especially, calcium phosphate and magnesium phosphate are preferable. Each of these stabilizers may be used alone or in the form of a mixture. […] A method for stabilization of 16-membered ring macrolide antibiotics of the present invention will be described in detail. The afore-mentioned various 16-membered ring macrolide antibiotics, for example 9-hydroxy 16-membered ring macrolides such as midecamycin, 3"-propionylleucomycin A5 and josamycin and 9-acyloxy 16-membered ring macrolides such as 9,3"-diacetylmidecamycin and 9-propionyljosamycin show extremely poor residual rates when added to an acidic solution of the Japanese Pharmacopoeia lst liquid (pH 1.2) and allowed to stand. That is, the 9hydroxy 16-membered ring maclorides decompose in a short time to by-produce their iso, demycarosyl and/or isodemycarosyl forms. The 9-acyloxy 16-membered ring macrolides decompose, too, to by-produce their 9-deacyl, 9-deacyl-iso, demycarosyl, 9-deacyl-demycarosyl or 9-deacyl-iso-demycarosyl forms. […]

[2] = AUC after oral administration of tablets to beagle dogs (bioassay of blood); type: in vivo; conditions: for AUC at 6 h: dog, blood, po, 500 mg
Protocol: An amount of the dissolution accelerators used, showing pH 2.5-4 in an aqueous solution will be described in detail. […] In all of these cases, the elution rate of 3"-propionylleucomycin A5 is less than 60%. […] In order to obtain their good absorbability, generally, it is necessary to use the pH at which the elution rate is favorable. […] The accelerators need to be used in 5-100 mg in formulating preparations. It is particularly preferred that these dissolution accelerators, for example tartaric acid and citric acid are used in a total amount of 40-100 mg at single administration. That is, one tablet is allowed to contain about 40-100 mg in the administration of one tablet a time, and about 20-50 mg each in two tablets a time. It is also particularly preferred, when the antibiotics are applied orally in the form of powders, fine granules, capsules, granules or dry syrups, that the accelerators are used in approximately 40-100 mg to the 16-membered ring macrolide antibiotics given in a 200 mg potency a time. It is suitable for preservation that these dissolution accelerators are used coated with film-forming substances by a microcapsulization technique using the accelerators as core materials.
To a mixture comprising TMS-19-Q and light anhydrous silicic acid, 10% w/w HPMC aqueous solution was added. Then the mixture was kneaded, dried and sieved by the use of a 24 mesh sieve to obtain Granule A.
To a mixture comprising glycine, citric acid anhydride and light silicic acid, 5% w/w HPMC aqueous solution was added as binder, and the mixture was made into granules by fluidized bed method (FB method). Then the granules were dried and sieved through 24 mesh screen to obtain Granule B.
To Granule A and Granule B, L-HPC and Avicel PH301 (to be adjusted by an amount of citric acid added: 52.7-12.7 g) and magnesium stearate were added and mixed. Then, the mixed powder was molded by pressure to the size of 14×8 mm and tablets were obtained, each of which (430 mg) containing 100 mg potency of TMS-19-Q 170 mg glycine and citric acid (0, 10, 20, 30 and 40 mg).

[3] = Elution rate of TMS-19-Q with glycine and citric or tartaric acid in diluted physiological saline solution; type: physicochemical; conditions: for elution rate with 40 mg or more of citric acid: citric acid 40 mg or more, saline + water
Protocol: To 40 ml of physiological saline solution 120 ml of water was added, and after the solution was placed in a vessel whose temperature was kept constant in a thermostat at 37° C., 200 mg of TMS-19-Q, 340 mg of glycine and 0-80 mg of citric acid were added, and the mixture was stirred by a magnetic stirrer. Then sampling thereof was conducted in a lapse of time (at 5 minutes, 15 minutes and 30 minutes) to observe absorbance (wavelength: 232 nm) and elution rate was calculated.
To 40 ml of physiological saline solution 120 ml of water was added, and after the solution was kept in a vessel whose temperature was kept constant in a thermostat controlled at 37° C., 200 mg of TMS-19-Q, 340 mg of glycine and 0-80 mg of tartaric acid were added, and the same procedures as those of Example 27 were followed to examine the elution rate of TMS-19-Q.

improvement of stability compared with control, 30 minutes ([1]; 150 mg of glycine, value at 30 minutes): 30%
stability in 1st solution (in words) ([1]; 1st solution pH 1.2, no stabilizer): extremely unstable
stability with tri-sodium citrate (in words) ([1]; 150-300 mg of tri-sodium citrate, 1st solution): very much enhanced
stability with calcium phosphate (in words) ([1]; 150-400 mg of calcium phosphate, 1st solution): very much enhanced
stability with glycine (in words) ([1]; 150-900 mg of glycine, 1st solution): stabilized well
stability with L-aspartic acid monosodium salt (in words) ([1]; 200-500 mg of Asp.Na, 1st solution): very much enhanced
stability with monosodium glutamate (in words) ([1]; 200-500 mg of Glu.Na, 1st solution): very much enhanced
degraded at 0.5 h ([1]; jp 1st solution, 1st solution pH 1.2, 37° C., 30 minutes, no stabilizer, read-out: decomposites (balance), 30 minutes): 39.5%
remaining at 0.5 h ([1]; jp 1st solution, 1st solution pH 1.2, 37° C., 30 minutes, no stabilizer, read-out: residual amount after contact with 1st solution, 30 minutes): 60.5%
degraded at 1 h ([1]; jp 1st solution, 1st solution pH 1.2, 37° C., 60 minutes, no stabilizer, read-out: decomposites (balance), 60 minutes): 41.4%
remaining at 1 h ([1]; jp 1st solution, 1st solution pH 1.2, 37° C., 60 minutes, no stabilizer, read-out: residual amount after contact with 1st solution, 60 minutes): 58.6%
stability with a larger amount of glycine (in words) ([1]; larger amount of glycine (up to 900 mg)): hardly decomposed
AUC versus amount of citric acid (in words) ([2]; beagles, oral, citric acid 30-40 mg): reached saturation
AUC at 6 h ([2]; read-out: AUC (area under a blood level versus time curve), 0 mg citric acid): 11800 ng·h/mL
AUC at 6 h ([2]; read-out: AUC (area under a blood level versus time curve), 10 mg citric acid): 12300 ng·h/mL
AUC at 6 h ([2]; read-out: AUC (area under a blood level versus time curve), 20 mg citric acid): 17000 ng·h/mL
AUC at 6 h ([2]; read-out: AUC (area under a blood level versus time curve), 30 mg citric acid): 20500 ng·h/mL
AUC at 6 h ([2]; read-out: AUC (area under a blood level versus time curve), 40 mg citric acid): 20900 ng·h/mL
elution rate with 0, 10 or 20 mg of citric acid ([3]; 200 mg potency, 340 mg glycine, pH 5.87, 5.51, 5.18): less than 60%
elution rate with 20 mg or 10 mg of citric acid ([3]; 340 mg glycine, citric acid 20 mg or 10 mg, after 15-minute stirring): 45-55%
elution rate with 40 mg or more of citric acid ([3]; 340 mg glycine): ≥ 95%
elution rate with 40 mg or more of citric acid ([3]; 340 mg glycine, listed as 3"-propionylleucomycin A5): more than 95%
elution rate with 0 mg of citric acid ([3]; 340 mg glycine, no citric acid, after 15-minute stirring): 10%
elution rate with 0 mg of tartaric acid ([3]; 340 mg glycine, no tartaric acid, after 15-minute stirring): 10%
elution rate with 20 mg or 10 mg of tartaric acid ([3]; 340 mg glycine, tartaric acid 20 mg or 10 mg, after 15-minute stirring): 40-55%
elution rate with 40 mg or more of tartaric acid ([3]; 340 mg glycine, tartaric acid 40 mg or more, value at 15 minutes): ≥ 95%
time within which elution was nearly completed (citric acid) ([3]; citric acid, solutions whose pH is equal to or less than 4.23): ≤ 15 min
time within which elution was nearly completed (tartaric acid) ([3]; tartaric acid, solutions whose pH is equal to or less than 4.09): ≤ 15 min
Structure (SMILES): CCCC(=O)OC1C(C)OC(OC2C(C)OC(OC3C(CC=O)CC(C)C(O)/C=C/C=C/CC(C)OC(=O)CC(O)C3OC)C(O)C2N(C)C)CC1(C)OC(=O)CC (centres unmarked) [TMS-19-Q, 3"-propionyl leucomycin A5]
blood concentrations or absorbability (in words) ([2]; beagles, oral, citric acid more than 30 mg per tablet): Good blood concentrations or absorbability
